Data reported in US11385234B2, “Methods and systems for detecting an analyte or classifying a sample” (Commonwealth Scientific and Industrial Research Organisation, priority 2012, dated 2022).
One block for each molecule: values may come before it.

Experiments:
GFP^2—MBP—RLuc2 = GFP^2—MBP—RLuc2 (Escherichia coli, UniProt P0AEX9); experiment: BRET^2 tagged MBP sugar assay, plate reader; assay type: binding; details: 0.1 mM sugar, 30 minutes at 28° C., 1 μM protein
Experimental: 1 μM purified protein was used for all the energy transfer assays (final volume of 100 μL). […] Purified protein was incubated with the sugar dissolved in double deionised water or water for 30 minutes at 28° C.
BRET ratios were calculated as the ratio of maximum acceptor emission intensity to maximum donor emission intensity.
All data analysis was carried out using GraphPad Prism (version 5 for Windows, Graphpad Software, San Diego, Calif., USA). All data will be reported as means± standard deviation (SD) unless otherwise stated in the text. Two-tailed unpaired t-tests will be performed using Graphpad prism. Statistical significance is defined as p<0.05.

[1] = molecular target: GMR sensor (GFP^2—MBP—RLUC2) (Escherichia coli, UniProt P0AEX9); details: 0.1 mM sugar
Experimental: On-chip measurements were carried out with microfluidic mixers with two inlets, a passive micromixer and an integrated optical detection chamber. BRET^2 measurements were recorded by using two photo multiplier tubes one equipped with an RLuc/Clz400a emission filter (410 nm bandpass 80 nm) and the other with a GFP^2 emission filter (515 nm bandpass 30m). The optical emission was collected by using an optical fiber with 1 mm core diameter aligned with on-chip optical detection chamber through a dichroic mirror.
The preparation was then mixed on-chip with 5 μM coelenterazine 400a and the optical signal was recorded from the detection chamber. The control experiments was carried out by incubating protein preparations with water and mixing on the chip under the same conditions.
Sensitivity assays were carried out on a two input microfluidic mixing device (FIG. 8b) with a serpentine common channel of L=18 mm. The BRET reaction chamber was Ø=4 mm and H=1 mm with no mirror. A bifurcated light guide was used with a 6 mm trunk and NA=0.59. […] The incubated sample and 31.25 μM Clz400a substrate were each pumped onto the chip at input flow rates of 400 μl/hr. The trunk end of the light guide was used to collect signal from the BRET reaction chamber. […] The BRET^2 signal was measured at each concentration. […]

thrombin = molecular target: T1, thrombin (Bos taurus, UniProt P00735); experiment: Hirudin pre-incubation in thrombin cleavage assay of GFP^2-RG-RLuc (BRET^H ratio, SDS-PAGE); assay type: biochemical
T1 construct: purchased Amersham Biosciences
Experimental: Various concentrations of thrombin were added to purified GFP^2-RG-RLuc biosensor and incubated at 30° C. for 90 minutes. To measure the extent of thrombin cleavage the sample mixture following incubation and the native CLZ solution were pumped from separate syringes into the two inlet channels and allowed to flow through the main channel. Diffusion between the two streams induced a BRET reaction at the interface. Recombinant hirudin from yeast (Sigma) was incubated with thrombin at room temperature for ten minutes prior to the protease assay.
To confirm complete thrombin cleavage of the GFP^2-RG-RLuc biosensor, SDS-PAGE analysis was carried out. Proteins (2.5 μg) were diluted in 1× sample loading buffer (Invitrogen) for SDS-gel electrophoresis in a 12% Bis-Tris gel with MOPS running buffer (NuPAGE, Invitrogen). Bands were stained with Fast Stain™ (Fisher) and then visualised.
Using the microplate spectrometer, hybrid BRET ratios were calculated as the ratio of bioluminescence emissions measured at 500 nm and 470 nm. Using the microchip system, the hybrid BRET ratio was calculated as ratio of the long wavelength emission (515 nm-555 nm) to the short wavelength emission (430 nm-455 nm) (Pfleger and Eidne, 2006). To allow comparison between the two different detection systems, the Hybrid BRET ratios were normalized by expressing them as a multiple of the BRET ratio without added thrombin, in the same measurement system. All data are reported as means±standard deviation (SD). Two-tailed unpaired t-tests were performed using Graphpad prism (version 5.00 for Windows, Graphpad Software, San Diego, Calif., USA). Statistical significance is defined as p<0.05.

Molecule: O=C(CO)[C@@H](O)[C@H](O)[C@H](O)CO [fructose]
response of BRET biosensor to sugar (GFP^2—MBP—RLuc2): did not respond

Molecule: OC[C@H]1O[C@H](OC[C@H]2O[C@H](O[C@]3(CO)O[C@H](CO)[C@@H](O)[C@@H]3O)[C@H](O)[C@@H](O)[C@@H]2O)[C@H](O)[C@@H](O)[C@H]1O [raffinose]
response of BRET biosensor to sugar (GFP^2—MBP—RLuc2): did not respond

Molecule: OC[C@H]1O[C@@](CO)(O[C@H]2O[C@H](CO)[C@@H](O)[C@H](O)[C@H]2O)[C@@H](O)[C@@H]1O [sucrose]
increase in BRET^2 ratio over no sugar control, on chip [1]: 15%
response of BRET biosensor to sugar (GFP^2—MBP—RLuc2): did not respond

BRET^H ratio with pre-addition of hirudin (thrombin; 54 nM thrombin pre-treated with 2 units hirudin, 10 minutes, room temperature): 1.08±0.14
effect of hirudin on thrombin induced reduction in BRET^H ratio (thrombin; 2 units hirudin, 10 minutes, room temperature): prevented the thrombin induced reduction
Molecule: hirudin
effect of hirudin on cleavage of fusion protein, SDS-PAGE (thrombin; 2 units hirudin, SDS-PAGE lane 6): inhibited the formation of the two components

Molecule: maltotriose
amplitude of the change in BRET ratio (GFP^2—MBP—RLuc2): 17.03%
